For orientation: Ki means a measure of affinity in units of concentration, obtained from inhibition or displacement.

The record followed here is ChEMBL document CHEMBL1126778, “Adenosine A1 antagonists. 3. Structure-activity relationships on amelioration against scopolamine- or N6-((R)-phenylisopropyl)adenosine-induced cognitive disturbance” (J Med Chem, 1993).

Each structure is given as a SMILES string. “And” between values parts separate entries of the source, which are not always exact repeats. Equal values may be shown once.

One assay concerns the target T1, Adenosine receptor A1 (Cavia porcellus, UniProt P47745).
T1 sequence (P47745 whole entry): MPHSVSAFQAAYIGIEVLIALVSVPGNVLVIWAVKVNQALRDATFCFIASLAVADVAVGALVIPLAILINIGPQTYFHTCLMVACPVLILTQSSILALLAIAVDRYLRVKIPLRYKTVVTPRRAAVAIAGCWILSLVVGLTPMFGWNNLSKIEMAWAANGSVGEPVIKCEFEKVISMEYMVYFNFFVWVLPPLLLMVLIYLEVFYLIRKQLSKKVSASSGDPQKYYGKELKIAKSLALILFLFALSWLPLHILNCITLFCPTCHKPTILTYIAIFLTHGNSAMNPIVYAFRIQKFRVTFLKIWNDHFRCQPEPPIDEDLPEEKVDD
Briefly: Binding affinity against Adenosine A1 receptor from guinea pig forebrain membranes by N6-[3H]- cyclohexyladenosine displacement.

Assay [1] concerns the target Adenosine receptor A1, Rattus norvegicus (UniProt P25099). Briefly: Binding affinity against Adenosine A1 receptor from rat forebrain membranes with N6-[3H]- cyclohexyladenosine.
The target of assay [2] is Adenosine A2 receptor (Homo sapiens, UniProt P29275+P29274). The assay is described as follows: Binding affinity against Adenosine A2 receptor from human platelets with [125I]-N6-aminobenzyladenosine.
Assay [3] addresses Adenosine A2 receptor (Rattus norvegicus, UniProt P29276+P30543). The assay is described as follows: Binding affinity at Adenosine A2 receptor from rat striatal membranes by N-[3H] ethyladenosin-5'- uronamide displacement.
Assay [4] concerns Mus musculus. The assay is described as follows: Acquisition time in (R)-PIA) induced avoidance test (performed in mice) for antagonistic activity after peroral administration of 0.08 mg/kg. It is filed as functional. To be noted: route oral.
Assay [5] relates to Mus musculus. Briefly: Acquisition time in (R)-PIA) induced avoidance test (performed in mice) for antagonistic activity after p.o. administration of 1.25 mg/kg. It is filed as functional. Particulars: route oral, 1.25 mg/kg.
For assay [6], the system named is Mus musculus. Briefly: Acquisition time in (R)-PIA) induced avoidance test (performed in mice) for antagonistic activity after peroral administration of 20 mg/kg (n=15). To be noted: route oral. It is filed as functional.
Assay [7] concerns Mus musculus. The assay is described as follows: Retention time in (R)-PIA) induced avoidance test (performed in mice) for antagonistic activity after p.o. administration of 1.25 mg/kg. On the set-up: dose 1.25 mg/kg. It is filed as functional, organism-based.
Assay [8] deals with Mus musculus. The assay is described as follows: Retention time in (R)-PIA) induced avoidance test (performed in mice) for antagonistic activity after peroral administration of 20 mg/kg (n=15) (P<0.005). It is filed as functional, organism-based. Set-up: dose 20 mg/kg.
Assay [9] deals with Mus musculus. The assay is described as follows: Retention time in (R)-PIA) induced avoidance test (performed in mice) for antagonistic activity after peroral administration of 0.31 mg/kg. On the set-up: dose 0.31 mg/kg. It is filed as functional, organism-based.
For assay [10], the system named is Mus musculus. Briefly: Tested for locomotor activity after oral administration of 10 mg/kg for 120 min. It is filed as functional.
The subject of assay [11] is Mus musculus. Briefly: Tested for locomotor activity after oral administration of […] for 120 min. It is filed as functional.
Assay [12] relates to Mus musculus. Briefly: Tested for locomotor activity after oral administration of 40 mg/kg for 120 min. It is filed as functional.
For assay [13], the system named is Rattus norvegicus. The assay is described as follows: Acquisition time in Scopolamine induced avoidance test (performed in rat) for antagonistic activity after peroral administration of 1.25 mg/kg (n=12). It is filed as functional. To be noted: route oral.
Assay [14] deals with Rattus norvegicus. Briefly: Acquisition time in Scopolamine induced avoidance test (performed in rat) for antagonistic activity after peroral administration of 0.02 mg/kg. It is filed as functional. Particulars: route oral.
Assay [15] has as its system Rattus norvegicus. Briefly: Acquisition time in Scopolamine induced avoidance test (performed in rat) for antagonistic activity after p.o. administration of 0.08 mg/kg. To be noted: route oral. It is filed as functional.
The test system of assay [16] is Rattus norvegicus. Briefly: Acquisition time in Scopolamine induced avoidance test (performed in rat) for antagonistic activity after p.o. administration of 0.31 mg/kg. It is filed as functional. To be noted: route oral.
Assay [17] deals with Rattus norvegicus. Briefly: Acquisition time in Scopolamine induced avoidance test (performed in rat) for antagonistic activity after p.o. administration of 5 mg/kg. It is filed as functional. Particulars: route oral.
Assay [18] concerns Rattus norvegicus. Briefly: Retention time in Scopolamine induced avoidance test (performed in […]) for antagonistic activity after peroral administration of 1.25 mg/kg (n=12) (P<0.01). It is filed as functional, organism-based. Set-up: dose 1.25 mg/kg.
For assay [19], the system named is Rattus norvegicus. Briefly: Retention time in Scopolamine induced avoidance test (performed in rat) for antagonistic activity after peroral administration of 0.02 mg/kg. It is filed as functional, organism-based. Set-up: dose 0.02 mg/kg.
Assay [20] has as its system Rattus norvegicus. Briefly: Retention time in Scopolamine induced avoidance test (performed in rat) for antagonistic activity after p.o. administration of 0.08 mg/kg. It is filed as functional, organism-based. Set-up: dose 0.08 mg/kg.
The subject of assay [21] is Rattus norvegicus. Briefly: Retention time in Scopolamine induced avoidance test (performed in rat) for antagonistic activity after p.o. administration of 0.31 mg/kg. On the set-up: dose 0.31 mg/kg. It is filed as functional, organism-based.
The test system of assay [22] is Rattus norvegicus. Briefly: Retention time in Scopolamine induced avoidance test (performed in rat) for antagonistic activity after peroral administration of 5 mg/kg. It is filed as functional, organism-based. Set-up: dose 5 mg/kg.

Chain of Adenosine receptor A1, Rattus norvegicus (P25099 whole entry, looked up): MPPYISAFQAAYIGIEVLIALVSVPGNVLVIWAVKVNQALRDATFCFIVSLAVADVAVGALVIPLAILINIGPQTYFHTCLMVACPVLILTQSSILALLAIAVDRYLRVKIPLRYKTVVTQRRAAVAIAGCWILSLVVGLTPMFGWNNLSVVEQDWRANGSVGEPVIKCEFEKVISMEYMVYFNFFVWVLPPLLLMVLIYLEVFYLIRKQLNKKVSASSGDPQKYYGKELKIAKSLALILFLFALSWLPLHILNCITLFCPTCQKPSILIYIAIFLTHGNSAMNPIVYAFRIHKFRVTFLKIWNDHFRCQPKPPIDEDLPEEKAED

Take `CCCn1c(=O)c2[nH]c(C3CCCC3)nc2n(CCc2ccc(N)cc2)c1=O`: the inhibition constant (Ki) is 5.6 nM at Adenosine receptor A1 and 0.23 nM in assay [1].

With `CCCn1c(=O)c2nc(C3CCCC3)[nH]c2n(CCc2ccc(N)cc2)c1=O`, the Ki at Adenosine A2 receptor [2] is 2000 nM; at Adenosine A2 receptor [3] it was 430 nM. Also, the Acquisition time is 21.2 s in the assay with Mus musculus [4]; 28.7 s and 23.1 s in the assay on Mus musculus [5]; 23.5 s in the assay on Mus musculus [6]; 18.3 s in the assay with Rattus norvegicus [13]; 25.7 s with Rattus norvegicus [14]; 20.8 s in the assay on Rattus norvegicus [15]. The Acquisition time with Rattus norvegicus [16] was determined as 11.1 s; with Rattus norvegicus [17], 12.3 s. The Retention time with Mus musculus [7] was 152 s and 177 s; in the assay with Mus musculus [8] it was 318 s; in the assay with Mus musculus [9], 113 s; in the assay on Rattus norvegicus [18], 384 s; in the assay with Rattus norvegicus [19] it was 151 s; in the assay with Rattus norvegicus [20], 160 s. Further, the Retention time in the assay on Rattus norvegicus [21] and with Rattus norvegicus [22] was 255 s throughout. The values for the Locomotor activity with Mus musculus [10], with Mus musculus [11] and in the assay with Mus musculus [12] were 6693 Counts, 6224 Counts and 5867 Counts, respectively.
